Source: the NIST ThermoML archive (doi:10.1021/je900410j)
Numbers after ± are expanded uncertainties.

Details: Crystal; DTA

| SMILES | Normal melting temperature |
| --- | --- |
| CCCCCCCCCCCCCCCC(=O)O [hexadecanoic acid] | 63.32 ± 0.53 °C |
| CCCCCCCCCCCCCCCCCC(=O)O [octadecanoic acid] | 70.23 ± 0.53 °C |
| CCCCCCCCCCCCCC(=O)O [tetradecanoic acid] | 55.41 ± 0.53 °C |

Other lines, results leading:

| Normal melting temperature | SMILES |
| --- | --- |
| 9.60 ± 0.53 °C | CCCCCCCC(=O)OCC(COC(=O)CCCCCCC)OC(=O)CCCCCCC [1,2,3-propanetriol trioctanoate] |
| 5.27 ± 0.53 °C | CCCCCCCC/C=C\CCCCCCCC(=O)OCC(COC(=O)CCCCCCC/C=C\CCCCCCCC)OC(=O)CCCCCCC/C=C\CCCCCCCC [1,2,3-tri(cis-9-octadecenoyl)glycerol] |
| -22.0 ± 0.53 °C | CC/C=C\C/C=C\C/C=C\CCCCCCCC(=O)OCC(COC(=O)CCCCCCC/C=C\C/C=C\C/C=C\CC)OC(=O)CCCCCCC/C=C\C/C=C\C/C=C\CC [trilinolenin] |
